Laboratory results: patent US6037351A, “Method of inhibiting hepatitis B virus” (priority 1996, dated 2000)

Experiments:
[1] = test system: SHBs (S) antigen; experiment: ELISA of SHBs (S) antigen in unfractionated culture medium of 2.2.15 cells; format: cell-based, HBV
Protocol: (§1) FIG. 3D: Histogram of the area under the averaged peaks of the densitometric tracing of the gel in FIG. 3B. […] Equal volumes of the indicated samples were tested for HBV envelope antigens using the enzyme-linked imminosorbent assay (ELISA) method. Samples of unfractionated medium (FIGS. 4A, 4B and 4C) or partially purified virus (FIGS. 4D, 4E and 4F) from 3-day cultures were tested for HBV SHBs ("S) (FIGS. 4A and 4D), LHBs: "PreS1" (FIGS. 4B and 4E) or MHBs "PreS2" (FIGS. 4C and 4F) epitopes. Cultures were maintained in the indicated concentrations of NBDNJ, expressed in millimolar units and shown along the X axis.
(§2) Detection of HBV proteins by the Enzyme Linked Immunoabsorbant assay (ELISA).
(§3) Monoclonal antibodies used herein are well-known and are described by Heerman et al., J. Virol. […]
(§4) Bound antigen was detected by incubation with peroxidase conjugated goat anti-HBs antibody (Behring) followed by development in orthophenylenediamine (0.33 mg/ml PBS-peroxide solution). Optical densities were read in a Behring plate reader. Tests on purified virus and total medium were conducted over a series of sample dilutions to insure proper quantification.
(§5) To distinguish between these possibilities, the amount and nature of envelope antigens in the culture medium was determined by both ELISA and Western analysis. […]

[2] = test system: Human Immunodeficiency Virus (HIV); settings: cited from earlier work
[3] = test system: hepatitis B virus (HBV); experiment: Intracellular HBV DNA in 2.2.15 cells (Southern blot, densitometry); format: cell-based, HBV in human hepatoma HepG 2.2.15 cells; settings: for increase in intracellular HBV copy abundance: adjusted for loading variation
Protocol: HepG 2.2.15 cells were grown for 6 days in the presence of the indicated concentration of NBDNJ with one change of medium. After the sixth day (seventh day in culture), cells and medium were collected. Autoradiograms of the viral DNA detected by hybridization of membranes to HBV probes are shown.
FIG. 2B: autoradiogram of a Southern blot of total intracellular DNA, digested to completion with EcoRI, from cells maintained in the absence of NBDNJ (lane 1) and in the presence of the following NBDNJ concentrations:
DNA was prepared from the pellets as in Sells and Chen, Proc. Natl. Acad. Sci. USA 84, 1005-1009 (1987). For Southern blots [Maniatis et al., Molecular cloning, a laboratory manual, Cold Spring Harbor Laboratory, Cold Spring Harbor, N.Y. (1982)], DNA was resolved by electrophoresis through 1.2% agarose, transferred to H+ bond (Amersham) filter paper and hybridized with radioactive ^32 P (Amersham) HBV probe (made by the random priming method described by the kit manufacturer, (Amersham), using pHBV as template [Foster et al., Proc. Natl. Acad. Sci. USA 88, 2888-2892 (1991)].
The NBDNJ-mediated decrease in virion associated HBV DNA in the medium could have been due to a decrease in viral DNA synthesis. Alternatively, it could have been due to a post synthetic event such as virion assembly, transport or egress from the cell. To distinguish between these possibilities, the amount of intracellular HBV specific DNA in untreated and NBDNJ treated 2.2.15 cells was compared.
Total cellular DNA was prepared from treated and untreated cells and digested to completion with EcoRI to linearize viral genomes. Near equal microgram amounts of digestion products (as determined by ethidium bromide staining and hybridization to a cell specific probe) were resolved by electrophoresis, Southern blotted and hybridized with the HBV specific probe (FIG. 2B). Unit length HBV genomes migrating as 3.2 kb bands are detected in DNA derived from untreated 2.2.15 cells (lane 1) and virions isolated from control culture medium (lane 5).

[4] = test system: LHBs (PreS1) antigen; experiment: ELISA of LHBs (PreS1) antigen in unfractionated culture medium of 2.2.15 cells; format: cell-based, HBV
Protocol: as §1, §2, §3, §4, §5

[5] = test system: hepatitis B virus (HBV); experiment: Intracellular HBV DNA in infected HepG2 cells (PCR, densitometry); format: cell-based, HBV in human hepatoma HepG2 cells; settings: HepG2 cells infected with HBV and post treated with NBDNJ, vs untreated
Protocol: FIG. 3B and FIG. 3D: DNA from the intracellular compartment of the cultures infected in FIG. 3A with HBV and treated with NBDNJ were amplified by PCR. The lanes contain amplified DNA from the following samples:
as §1, with “Cultures were maintained in the indicated concentrations of NBDNJ, expressed in millimolar units and shown along the X axis.” left out
Progeny virus in the medium of HepG2 cells infected with serum derived HBV was detected by precipitating medium with monoclonal antibody to the PreS2 epitopes. […]
Since the culture medium of HBV infected HepG2 cells treated with NBDNJ was similar to 2.2.15 cells, with respect to the reduced amount of virion associated DNA, it was of interest to know if there was a concomitant increase in viral DNA within the treated cells. […] Products of the reaction were resolved by agarose gel electrophoresis and the ethidium bromide stained gel (FIG. 3B) was analyzed by densitometry (FIG. 3D).

[6] = test system: HIV; settings: read-out: EC50 for inhibition of HIV replication; cited from earlier work

CCCCN1C[C@H](O)[C@@H](O)[C@H](O)[C@H]1CO [NBDNJ, N-butyl-1,5-dideoxy-1,5-imino-D-glucitol]
effect upon total amount of SHBs (S) antigen in medium [1]: no significant effect | formation of cytotoxic HIV in vitro (in words) [2]: suppress formation of cytotoxic Human Immunodeficiency Virus (HIV) in vitro | increase in intracellular HBV copy abundance ([3]; NBDNJ 200 μg/ml): 1.7 fold | increase in intracellular HBV copy abundance ([3]; NBDNJ 500 μg/ml): 3.0 fold | increase in intracellular HBV copy abundance ([3]; NBDNJ 1000 μg/ml): 5.1 fold | amount of intracellular HBV DNA (in words) ([3]; NBDNJ 200, 500, 1000 μg/ml): clear dose-dependent increase | effect upon total amount of LHBs (PreS1) antigen in medium [4]: no significant effect | accumulation of intracellular viral DNA [5]: accumulate greater amounts of viral DNA | EC50 [6]: 43 µM
